Source: article PMC11040665, “Aminothiazolone Inhibitors Disrupt the Protein–RNA Interaction of METTL16 and Modulate the m^6A RNA Modification” (JACS Au, 2024)
“Also recorded” adds a separate entry of the source.

T1: METTL16–MAT2A-hp1 mRNA interaction (METTL16 MTD 1–291, FAM-labeled MAT2A-hp1 RNA) (Homo sapiens, UniProt Q86W50)
T1 sequence (Q86W50 1-291): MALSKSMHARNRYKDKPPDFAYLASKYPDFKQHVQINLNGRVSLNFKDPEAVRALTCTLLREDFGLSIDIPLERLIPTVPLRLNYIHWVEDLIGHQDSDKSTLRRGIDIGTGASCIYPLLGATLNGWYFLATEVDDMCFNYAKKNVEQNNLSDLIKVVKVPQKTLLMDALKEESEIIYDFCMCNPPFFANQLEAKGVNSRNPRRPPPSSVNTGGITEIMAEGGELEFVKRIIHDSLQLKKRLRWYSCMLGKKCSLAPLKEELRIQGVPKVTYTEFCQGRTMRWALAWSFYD

T2: METTL16 MTD–MAT2A-hp1 RNA interaction (Homo sapiens, UniProt Q86W50)
T2 sequence (Q86W50 1-291): T1 sequence (Q86W50 1-291)

T3: METTL16 MTD–U6 snRNA Δ interaction (Homo sapiens, UniProt Q86W50)
T3 construct: METTL16 MTD (1–291) was subcloned to pOPINB plasmid; His tag followed by HRV 3C cleavage site (N, cleaved yes); made in house; host or cells: E. coli Rosetta (DE3)
T3 sequence (Q86W50 1-291): T1 sequence (Q86W50 1-291)

T4: methyltransferase activity of METTL16 MTD toward MAT2A-hp1 (Homo sapiens, UniProt Q86W50)
T4 construct: METTL16 MTD (1–291) was subcloned to pOPINB plasmid; His tag followed by HRV 3C cleavage site (N, cleaved yes); made in house; host or cells: E. coli Rosetta (DE3)
T4 sequence (Q86W50 1-291): T1 sequence (Q86W50 1-291)

T5: METTL16 MTD–GGACU-containing RNA interaction (Homo sapiens, UniProt Q86W50)
T5 sequence (Q86W50 1-291): T1 sequence (Q86W50 1-291)

T6: METTL16 (1-291)–FAM-MAT2A-hp1 RNA (Homo sapiens, UniProt Q86W50)
T6 construct: METTL16 MTD (1–291) was subcloned to pOPINB plasmid; His tag followed by HRV 3C cleavage site (N, cleaved yes); made in house; host or cells: E. coli Rosetta (DE3)
T6 sequence (Q86W50 1-291): T1 sequence (Q86W50 1-291)

T7: METTL16 (1-291) (Homo sapiens, UniProt Q86W50)
T7 construct: METTL16 MTD (1–291) was subcloned to pOPINB plasmid; His tag followed by HRV 3C cleavage site (N, cleaved yes); made in house; host or cells: E. coli Rosetta (DE3)
T7 sequence (Q86W50 1-291): T1 sequence (Q86W50 1-291)

T8: METTL16 MTD (methyltransferase domain) (Homo sapiens, UniProt Q86W50 1-291)
T8 sequence: T1 sequence (Q86W50 1-291)


Tests used:
[1] = biological target: T1, METTL16–MAT2A-hp1 mRNA interaction (METTL16 MTD 1–291, FAM-labeled MAT2A-hp1 RNA); experiment: Fluorescence polarization (FP) assay, disruption of METTL16 binding to FAM-MAT2A-hp1 RNA
Procedure: The binding of METTL16 to the FAM-labeled RNA probe formed a complex that led to a higher FP signal in comparison to that of the unbound RNA probe (Figure 2A). […] The Z-factor of 0.91 indicated the suitability of the assay condition (Figure S2D). […] In both FP assay and EMSA, a final concentration of 50 nM METTL16 and 5 nM FAM-MAT2A-hp was used. The METTL16 MTD (amino acids 1–291) was used in this study unless specifically indicated otherwise.
The FP assay was performed using 384-well black plates (Corning #4514) in a total reaction volume of 20 μL, with the final concentration of protein and RNA being 50 and 5 nM respectively. Compounds were diluted in FP buffer and incubated with protein for 30 min at room temperature, then FAM-MAT2A-hp1 RNA probe was added and the fluorescence polarization was measured using a TECAN Spark plate reader, under the excitation wavelength of 485 nm and the emission wavelength of 535 nm with bandwidth of 20 nm. 1% DMSO was used as the control. The inhibition was calculated with the equation: inhibition = 100%(Control – X)/(Control – Blank); Control: DMSO with protein and FAM-RNA; Blank: DMSO with FAM-RNA; X: compound with protein and FAM-RNA. The IC50 value was further determined using GraphPad Prism 9. […] The polarization was measured under an excitation wavelength of 630 nm and an emission wavelength of 680 nm with a bandwidth of 20 nm.

[2] = biological target: T2, METTL16 MTD–MAT2A-hp1 RNA interaction; experiment: Electrophoretic mobility shift assay (EMSA) with FAM-MAT2A-hp1 RNA; settings: 50 nM METTL16, 5 nM FAM-MAT2A-hp1
Procedure: METTL16 MTD protein (1–291) was incubated with the indicated compound or DMSO in a buffer containing 20 mM HEPES, pH 7.5, 50 mM NaCl, 0.05% v/v Tween 20, and 0.05 mg/mL BGG at room temperature for 30 min; subsequently, FAM-MAT2A-hp1 RNA probe was added and incubated at room temperature for 10 min, the final of protein and RNA are 50 and 5 nM respectively, and 1% DMSO was used as the control. […] The gel was detected and imaged by Chemi Doc MP (Bio-Rad).

[3] = biological target: T3, METTL16 MTD–U6 snRNA Δ interaction; experiment: FP assay with Cy5-labeled U6 snRNA Δ; type: binding
MDA-MB-231 cells [4] = experiment: Cell viability, MDA-MB-231; type: cell-based, human
[5] = biological target: T4, methyltransferase activity of METTL16 MTD toward MAT2A-hp1; experiment: In vitro methylation assay (MTase Glo); type: biochemical; settings: RNA substrate MAT2A-hp1
Procedure: Next, we evaluated the inhibition of the METTL16 methylation using the MTase Glo assay kit (Promega) measuring the methyltransferase activity based on the formation of the methylation product S-adenosyl homocysteine, which was converted to ADP by the MTase-Glo reagent to trigger a subsequent luciferase reaction (Figure 5E).
The methyltransferase activity of METTL16 MTD was measured using an MTase Glo kit (Promega V7601) following the manufacturer’s instructions. The reaction was carried out in white 384-well plates (Corning #3824), with a total methyltransferase reaction volume of 8 μL, and the final concentrations of METTL16 MTD, MAT2A-hp1, and SAM were 1, 1, and 10 μM, respectively, and 1% of DMSO was used as a control. […] To use SAM at a different final concentration, the concentration of SAM was adjusted accordingly in a 2× substrate solution.

MDA-MB-231 cells [6] = experiment: Colony formation assay; type: cell-based, human; settings: 7 days, three tested concentrations
Procedure: MDA-MB-231 cells were collected and seeded with the density of 1000 cells per well into 24-well plates; after being cultured overnight, the medium was exchanged and treated with indicated compounds or DMSO (0.5%) as the control. The medium change and treatment were performed every 3 days. After 7 days, the cell culture medium was discarded, and cells were washed with PBS and fixed with 4% paraformaldehyde solution at room temperature for 15 min; the paraformaldehyde solution was removed, and cells were washed with PBS again to remove the paraformaldehyde. Then cells were stained with 0.1% (w/v) crystal violet. After staining for 15 min, the cells were washed with H2O to remove the extra dye and then photographed.

[7] = biological target: T5, METTL16 MTD–GGACU-containing RNA interaction; experiment: EMSA with GGACU-containing RNA; settings: 5 nM RNA, 600 nM METTL16 MTD
Procedure: METTL16 MTD protein (1–291) was incubated with the indicated compound or DMSO in a buffer containing 20 mM HEPES, pH 7.5, 50 mM NaCl, 0.05% v/v Tween 20, and 0.05 mg/mL BGG at room temperature for 30 min; subsequently, FAM-MAT2A-hp1 RNA probe was added and incubated at room temperature for 10 min, the final of protein and RNA are 50 and 5 nM respectively, and 1% DMSO was used as the control. […] The gel was detected and imaged by Chemi Doc MP (Bio-Rad). […] EMSA for testing compounds with GGAUC-motif containing RNA and METTL16 MTD interaction was performed using the method described above, expecting that the final of METTL16 MTD protein and FAM-labeled-GGACU RNA are 600 nM and 5 nM respectively. EMSA for RNA binding: indicated concentrations of fluorophore-labeled RNA were incubated with indicated concentrations of protein in EMSA buffer for 15 min at room temperature, then loaded to native PAGE gels and imaged with the method described above.

[8] = biological target: T6, METTL16 (1-291)–FAM-MAT2A-hp1 RNA; experiment: FP assay after incubating SAM with METTL16; type: binding; settings: SAM incubated with METTL16 before the FP assay
METTL16 (1-291) = biological target: T7, METTL16 (1-291); experiment: Covalent binding evaluation by protein LC–MS; settings: 30 μM METTL16 (1-291), 100 μM compound, 30 or 150 min
Procedure: To evaluate whether the aminothiazolones covalently bind to METTL16, we performed the LC–MS analysis after incubating the protein with aminothiazolones for 30 and 150 min, respectively. In the case of covalent binding, we would expect to observe the formation of covalent adducts, which would accrue over time. […] Besides the LC–MS analysis result, an irreversible inhibition counter screening indicated the reversible inhibitory activity of the aminothiazolones (Figure S8A).
Figure S7. Covalent evaluation of METTL16 inhibitors via LC-MS. (A) Deconvoluted mass spectrum of 30 µM METTL16 (1-291) incubated with 1% DMSO for 30 min (left) and 150 min (right). (B), (C), (D) Deconvoluted […]
(right). Expected Mass for METTL16 (1-291), 33455.7 Da. The observed small mass shift of ~50 Da appeared in both the DMSO control and compound-treated samples was probably formed by the solvent used in the LC-MS.
(1 picture or pasted object on this page, not shown here)
For computational docking analysis of aminothiazolones to the RNA binding site of METTL16 (PDB code: 6B91)2 Schrödinger® Maestro 12.3 was used. […]
Chemical states were generated with the ligand preparation module and METTL16 conformation with the protein preparation module. […] The glide dock module was used and the results were evaluated according to interactions between small molecules and METTL16, small molecule orientations, docking scores and solvent exposure patterns. […]
METTL16 MTD protein was diluted in SEC buffer (20mM pH 7.5, 200 mM NaCl, 0.5 mM TCEP,5% v/v glycerol) to a final concentration of 30 µM, and incubated with DMSO or 100 μM compound (final 1% DMSO) at room temperature. After incubation (30 min or 150 min), the samples were analyzed on an Agilent 1260 II Infinity system equipped with an electrospray ion source in positive mode, run through a Desalting cartridge (AdvanceBio Desalting-RP, 2.1 mm, 12.5mm, Agilent) with a gradient of 5-80% HPLC-grade acetonitrile (+ 0.1% TFA) in HPLC-grade water (+ 0.1% TFA) (flowrate: 0.4 mL/min, runtime: 6 min). […]

[9] = biological target: T8, METTL16 MTD (methyltransferase domain); experiment: competition FP; vs FAM-MAT2A-hp1; more potent than GGACU-RNA and pre-miR-17-hp bp; 20 mM HEPES pH 7.5, 50 mM NaCl, 0.05% Tween 20, 0.05 mg/mL BGG, room temperature; EMSA 6.6% native PAGE 0.5x TBE at 4 C; settings: protein: recombinant, tags: N-terminal His tag removed by HRV 3C (His-tagged form also purified)
[10] = biological target: T8, METTL16 MTD (methyltransferase domain); experiment: competition FP; vs FAM-MAT2A-hp1; 20 mM HEPES pH 7.5, 50 mM NaCl, 0.05% Tween 20, 0.05 mg/mL BGG, room temperature; EMSA 6.6% native PAGE 0.5x TBE at 4 C; settings: protein: recombinant; tags: N-terminal His tag removed by HRV 3C (His-tagged form also purified)

Row | Molecule | IC50 [1] [nM] | IC50 [3] [nM] | inhibition of the methyltransferase activity of METTL16 MTD, in words [5] | inhibition on colony formation, in words (MDA-MB-231 cells [6]) | inhibition of METTL16–GGACU RNA binding in EMSA, in words [7] | also measured
1 | COc1ccc(S(=O)(=O)NC2=NC(=O)C(=C3C(=O)Nc4ccc(Cl)cc43)S2)cc1 [Compound 1] | 16300 |  |  |  |  | disruption of METTL16–MAT2A-hp1 RNA binding in EMSA, in words [2]: dose-dependent inhibition
2 | O=C1N=C(NS(=O)(=O)c2ccc(C(=O)O)cc2)SC1=C1C(=O)Nc2ccc(Cl)cc21 [Compound 27] | 2700 | 6600 | dose-dependently inhibited; also recorded: potent inhibitory activity | mild inhibitory activity against colony formation | dose-dependently inhibited | effect on cell viability, in words (MDA-MB-231 cells [4]): mild antiviability effect
3 | CN1C(=O)C(=C2SC(NS(=O)(=O)c3ccc(C(=O)O)cc3)=NC2=O)c2cc([N+](=O)[O-])ccc21 [Compound 46] | 2000 | 2800 | dose-dependently inhibited; also recorded: potent inhibitory activity | did not show obvious inhibition on colony formation | dose-dependently inhibited | IC50 under different SAM concentrations (FP assay), in words [8]: remained; covalent adduct formation with METTL16 (LC–MS) (METTL16 (1-291)): no such covalent adduct with a mass shift was observed
4 | GUGCAGGUAGUGAUAUGUGCAUCUACUGCAC (structured_RNA) [pre-miR-17-hp] |  |  |  |  |  | binding result ([9]; hairpin with two bulges): binds
5 | GGGUUGACUGUUGAAUCUCAUGGCAACCC (structured_RNA) [pre-miR-21-hp] |  |  |  |  |  | binding result ([9]; hairpin): binds
6 | UUCUUCUGUGGACUGUG (ssRNA) [GGACU-RNA (unlabeled)] |  |  |  |  |  | IC50 [10]: 814 nM
